# Measurements: article PMC10017685 (Nature Communications, 2023)
# Where two headings read alike, the source gives them in different places. Peptide text beside a SMILES is read from it.
# What was measured:
# Sheep red blood cells = assay: Hemolysis assay (HC50); type: cell-based
# Description: The hemolysis assay was conducted according to the procedure described previously. Sheep red blood cells (Defibrillated Sheep Blood, Graso, Poland) were used. […] Then the solution of RBCs was added to each well (100 μL with a 4% concentration of erythrocytes (v/v). The control wells for 0 and 100% hemolysis were also prepared: RBCs suspended in PBS and 1% of Triton-X 100, respectively. After that the plates were incubated for 60 min at 37 °C and then centrifuged at 800 × g for 10 min at 4 °C (Sorvall ST 16R Centrifuge, Thermo Scientific). The supernatant was carefully […] to new microtiter plates and the release of hemoglobin was measured at 590 nm (Multiskan™ GO Microplate Spectrophotometer, Thermo Scientific). Hemolysis for each concentration was calculated as the percentage of control with 100% hemolysis. All experiments were conducted in triplicate. The final values of HC50 were computed using ic50.tk tool.
# E. coli ATCC 25922 [1] = type: cell-based, Escherichia coli
# Description: Fresh cultures were used in antimicrobial assay. […] Moreover MBC was evaluated. […] All experiments were conducted in triplicate.
# E. coli ATCC 43827 = type: cell-based, Escherichia coli
# Description: Verification of antimicrobial activity of the synthesized analogs was conducted on reference strains of E. coli ATCC 25922 and ATCC 43827 in the first phase of the experimental validation, and S. aureus ATCC 33591, E. coli ATCC 25922, E. coli ATCC 43827, A. baumannii ATCC BAA 1605, P. aeruginosa ATCC 9027 in the second phase.
# All the strains were stored at -80 °C in Roti®-Store cryo vials (Carl Roth GmbH, Germany) and before the tests were transferred into fresh Mueller-Hinton Medium (BioMaxima, Poland) and incubated for 24 h at 37 °C. Fresh cultures were used in antimicrobial assay. The MIC values were evaluated by the broth microdilution method according to Clinical and Laboratory Standards Institute Protocol[86]. […] The experiments were conducted on 96-well microtiter plates, with a final volume of 100 μL. Inoculums densities were adjusted spectrophotometrically (Multiskan™ GO Microplate Spectrophotometer, Thermo Scientific) at the wavelength of 600 nm. The MICs were taken as the lowest drug concentration at which a visible growth of microorganisms was inhibited[87]. Moreover MBC was evaluated. After MIC examination the samples from MIC well and two higher concentrations were seeded on the agar plates. Section with no visible growth of bacterial colonies was reported as the MBC for each strain and compound. All experiments were conducted in triplicate. […]
# E. coli ATCC 25922 [2] = tested on: E. coli ATCC 25922; parameters: method as in DBAASP; details: origin dbaasp_ecoli; ref DBAASP; cited from earlier work
# [3] = experimentally confirmed activity, strain not given; ref Supplementary Data 3; cited from earlier work
# Excerpt: 21 (1 picture or pasted object on this page, not shown here)
# erythrocytes = details: cited from earlier work
# Excerpt: Supplement 41467_2023_36994_MOESM6_ESM.xlsx, sheet "MD calibration" | column: Hemolytic activity (HC50); Comment
# S. aureus ATCC 29212 = details: ref https://dbaasp.org/peptide-card?id=8199; cited from earlier work
# Excerpt: page 7: Reviewer #2 (Remarks to the Author): The authors present a new method, HydrAMP, for antimicrobial peptide generation. The generative model of HydrAMP is a decoder, which produces a distribution over peptides in order to mimic the synthesis of the antimicrobial peptides in biological experiments. HydrAMP is the first model trained and used to identify active analogs of non-AMP prototypes. During training, they introduce an additional encoder to provide a variational approximation to help optimize the decoder. Their method is based on the conditional VAE model, which provides the foundat ...
# E. coli ATCC 25922 [4] = details: ref https://dbaasp.org/peptide-card?id=8199; cited from earlier work
# human erythrocytes = tested on: human erythrocytes; parameters: method as in DBAASP; details: toxicity class label 1 or 0, meaning of the labels not given; DBAASP HC50 data, human erythrocytes; ref DBAASP; cited from earlier work
# [5] = Supplementary Data 5F, analogue generation without additional preselection
# [6] = first experimental round, broth microdilution (CLSI), Mueller-Hinton Broth, 0.5 × 10^5 CFU/mL, 1-[…], 18 h at 37 °C, triplicate
molecule,measurement,setting,value
CC[C@H](C)[C@H](N)C(=O)N[C@@H](CC(C)C)C(=O)N[C@@H](CCCNC(=N)N)C(=O)N[C@@H](Cc1c[nH]c2ccccc12)C(=O)N1CCC[C@H]1C(=O)N[C@@H](Cc1c[nH]c2ccccc12)C(=O)N[C@@H](Cc1c[nH]c2ccccc12)C(=O)N1CCC[C@H]1C(=O)N[C@@H](Cc1c[nH]c2ccccc12)C(=O)N[C@@H](CCCNC(=N)N)C(=O)N[C@@H](CCCNC(=N)N)C(=O)N[C@@H](CCCCN)C(N)=O [Omiganan] (H-ILRWPWWPWRRK-NH2),HC50,Sheep red blood cells,> 512 µg/mL
same,HC50,Sheep red blood cells; red cells of sheep,>512 µg/mL
CC[C@H](C)[C@H](NC(=O)[C@H](Cc1ccccc1)NC(=O)[C@H](CCCCN)NC(=O)[C@H](CC(N)=O)NC(=O)[C@H](CC(C)C)NC(=O)[C@H](CCC(N)=O)NC(=O)CN)C(=O)N[C@@H](CCCCN)C(=O)N[C@@H](CCCCN)C(=O)N[C@@H](C)C(=O)N[C@@H](CCC(N)=O)C(=O)N[C@@H](CCCNC(=N)N)C(=O)N[C@@H](CCCCN)C(=O)N[C@@H](Cc1ccccc1)C(=O)N[C@@H](Cc1c[nH]cn1)C(=O)N[C@@H](CCC(=O)O)C(=O)N[C@@H](CCCCN)C(=O)N[C@@H](Cc1ccccc1)C(=O)N[C@@H](C)C(=O)N[C@@H](CCCCN)C(N)=O [GQ20] (H-GQLNKFIKKAQRKFHEKFAK-NH2),HC50,Sheep red blood cells,> 512 µg/mL
same,HC50,Sheep red blood cells; red cells of sheep,>512 µg/mL
CC[C@H](C)[C@H](NC(=O)CNC(=O)[C@H](CO)NC(=O)[C@H](CC(C)C)NC(=O)[C@@H](NC(=O)[C@H](CCCNC(=N)N)NC(=O)CNC(=O)[C@@H](NC(=O)[C@H](CC(C)C)NC(=O)[C@@H]1CCCN1C(=O)[C@H](CC(C)C)NC(=O)[C@@H](N)Cc1ccccc1)[C@@H](C)CC)C(C)C)C(=O)N[C@@H](C)C(N)=O [Temp-P1-3] (H-FLPLIGRVLSGIA-NH2),E. coli ATCC 25922 MIC,E. coli ATCC 25922 [1]; [5],512 µg/mL
same,MIC E. coli ATCC 25922,E. coli ATCC 25922 [1]; [6],512 µg/mL
same,E. coli ATCC 43827 MIC,E. coli ATCC 43827; [5],512 µg/mL
same,MIC E. coli ATCC 43927,E. coli ATCC 43827; [6],512 µg/mL
LKKLLKLLKPLLKL,Class (activity against E. coli ATCC 25922 in dedicated activity dataset),E. coli ATCC 25922 [2],1 (positive (active) examples are peptides selected from DBAASP with experimentally verified MIC≤ 101.5≃ 32 against E. coli ATCC 25922)
FLRFIGSVIHGIGHLVHHIGVAL [Clavaspirin],MIC (moderately active AMP of MD validation set),[3],64 µg/mL
CC[C@H](C)[C@H](NC(=O)CN)C(=O)NCC(=O)N[C@@H](CCCCN)C(=O)N[C@@H](Cc1ccccc1)C(=O)N[C@@H](CC(C)C)C(=O)N[C@@H](CCCCN)C(=O)N[C@@H](CCCCN)C(=O)N[C@@H](C)C(=O)N[C@@H](CCCCN)C(=O)N[C@@H](CCCCN)C(=O)N[C@@H](Cc1ccccc1)C(=O)NCC(=O)N[C@@H](CCCCN)C(=O)N[C@@H](C)C(=O)N[C@@H](Cc1ccccc1)C(=O)N[C@H](C(=O)N[C@@H](CCCCN)C(=O)N[C@H](C(=O)N[C@@H](CC(C)C)C(=O)N[C@@H](CCCCN)C(=O)N[C@@H](CCCCN)C(N)=O)[C@@H](C)CC)C(C)C [Pexiganan] (H-GIGKFLKKAKKFGKAFVKILKK-NH2),HC50,Sheep red blood cells,> 512 µg/mL
same,HC50,Sheep red blood cells; red cells of sheep,>512 µg/mL
KWCFRVCARGICYRRCR,Class (activity against E. coli ATCC 25922 in dedicated activity dataset),E. coli ATCC 25922 [2],1 (positive (active) examples are peptides selected from DBAASP with experimentally verified MIC≤ 101.5≃ 32 against E. coli ATCC 25922)
FFHHIFRGIVHVGKTIHRLVTG [Piscidin 1],Comment: toxicity,erythrocytes,"Active broad spetrum, toxic"
CC[C@H](C)[C@H](NC(=O)[C@H](CCCCN)NC(=O)[C@H](CC(N)=O)NC(=O)[C@@H](NC(=O)[C@@H](NC(=O)[C@H](CCCCN)NC(=O)[C@@H](NC(=O)[C@H](C)NC(=O)[C@@H](NC(=O)[C@H](Cc1c[nH]cn1)NC(=O)CNC(=O)[C@H](C)NC(=O)[C@H](CC(C)C)NC(=O)[C@H](CC(=O)O)NC(=O)[C@H](CCCCN)NC(=O)[C@H](C)NC(=O)[C@H](C)NC(=O)CNC(=O)[C@H](CCCCN)NC(=O)[C@H](CC(C)C)NC(=O)[C@@H](NC(=O)[C@H](CC(=O)O)NC(=O)[C@H](CC(C)C)NC(=O)[C@@H](NC(=O)CN)C(C)C)[C@@H](C)CC)C(C)C)[C@@H](C)O)C(C)C)[C@@H](C)CC)C(N)=O [Syphaxin] (H-GVLDILKGAAKDLAGHVATKVINKI-NH2),HC50,Sheep red blood cells,> 512 µg/mL
same,HC50,Sheep red blood cells; red cells of sheep,>512 µg/mL
GLLSLSLGKLL,Class (activity against E. coli ATCC 25922 in dedicated activity dataset),E. coli ATCC 25922 [2],1 (positive (active) examples are peptides selected from DBAASP with experimentally verified MIC≤ 101.5≃ 32 against E. coli ATCC 25922)
FFSLIPSLVGGLISAFK [Stigmurin],MIC S. aureus ATCC 29212,S. aureus ATCC 29212,8.68 µM
same,MIC E. coli ATCC 25922,E. coli ATCC 25922 [4],> 139 µM
KDRPKKPGLCPLIWWLIIKVG,Class (activity against E. coli ATCC 25922 in dedicated activity dataset),E. coli ATCC 25922 [2],1 (positive (active) examples are peptides selected from DBAASP with experimentally verified MIC≤ 101.5≃ 32 against E. coli ATCC 25922)
CC[C@H](C)[C@H](N)C(=O)NCC(=O)N[C@@H](CCCCN)C(=O)N[C@@H](CCC(=O)O)C(=O)N[C@@H](Cc1ccccc1)C(=O)N[C@@H](CCCCN)C(=O)N[C@@H](CCCNC(=N)N)C(=O)N[C@H](C(=O)N[C@H](C(=O)N[C@@H](CCC(=O)O)C(=O)N[C@@H](CCCNC(=N)N)C(=O)N[C@H](C(=O)N[C@@H](CCCCN)C(=O)N[C@@H](CCCNC(=N)N)C(=O)N[C@@H](Cc1ccccc1)C(=O)N[C@@H](CC(C)C)C(=O)N[C@@H](CCCNC(=N)N)C(=O)N[C@@H](CCC(=O)O)C(=O)N[C@@H](CC(C)C)C(=O)N[C@H](C(=O)N[C@@H](CCCNC(=N)N)C(=O)N1CCC[C@H]1C(=O)N[C@@H](CC(C)C)C(=O)N[C@@H](CCCNC(=N)N)C(N)=O)C(C)C)[C@@H](C)CC)C(C)C)[C@@H](C)CC [OP-145] (H-IGKEFKRIVERIKRFLRELVRPLR-NH2),HC50,Sheep red blood cells,> 512 µg/mL
same,HC50,Sheep red blood cells; red cells of sheep,>512 µg/mL
KGIVGMLGKLF [DBAASP_5480],Class (dedicated toxicity dataset used for toxicity classifier evaluation),human erythrocytes,0
FLPLVTMLLGKLF [DBAASP_3105],Class (dedicated toxicity dataset used for toxicity classifier evaluation),human erythrocytes,1
GLLGKLLKIAAKVGSNLL [DBAASP_4922],Class (dedicated toxicity dataset used for toxicity classifier evaluation),human erythrocytes,1
GLVGTLLGHIGKAILS [DBAASP_5370],Class (dedicated toxicity dataset used for toxicity classifier evaluation),human erythrocytes,0
ALWKTMLKKLGTM [DBAASP_10093],Class (dedicated toxicity dataset used for toxicity classifier evaluation),human erythrocytes,0
GVFLDALKKFAKGGMNAVLNPK [DBAASP_3156],Class (dedicated toxicity dataset used for toxicity classifier evaluation),human erythrocytes,0
FLPKILKVAAK [DBAASP_16465],Class (dedicated toxicity dataset used for toxicity classifier evaluation),human erythrocytes,0
FFHHFARGIVHVGKTIHRLVTG [DBAASP_9009],Class (dedicated toxicity dataset used for toxicity classifier evaluation),human erythrocytes,0
ILGKLLKTAAKLLSNL [DBAASP_4365],Class (dedicated toxicity dataset used for toxicity classifier evaluation),human erythrocytes,0
FLKWALKWAAK [DBAASP_16467],Class (dedicated toxicity dataset used for toxicity classifier evaluation),human erythrocytes,0
KKVLKAAA [DBAASP_7361],Class (dedicated toxicity dataset used for toxicity classifier evaluation),human erythrocytes,0
SAVWRWRRFWLRKRK [DBAASP_9989],Class (dedicated toxicity dataset used for toxicity classifier evaluation),human erythrocytes,0
GFGMALKLLKKVL [DBAASP_3442],Class (dedicated toxicity dataset used for toxicity classifier evaluation),human erythrocytes,0
FLSLIPKAISAISALINHF [DBAASP_12628],Class (dedicated toxicity dataset used for toxicity classifier evaluation),human erythrocytes,1
SAVGRHLRRFLLRKHRKH [DBAASP_7660],Class (dedicated toxicity dataset used for toxicity classifier evaluation),human erythrocytes,0
FLPIIAGIAAKFLPKIFCTISKKC [DBAASP_4214],Class (dedicated toxicity dataset used for toxicity classifier evaluation),human erythrocytes,1
KIAKVALKALKIAKGALKAL [DBAASP_9754],Class (dedicated toxicity dataset used for toxicity classifier evaluation),human erythrocytes,0
HKLGTLVNLAKKIL [DBAASP_5015],Class (dedicated toxicity dataset used for toxicity classifier evaluation),human erythrocytes,0
GLKGLLGKALKGIGKHIGKAQGC [DBAASP_6808],Class (dedicated toxicity dataset used for toxicity classifier evaluation),human erythrocytes,0
FPVTWPTKWWEG [DBAASP_9720],Class (dedicated toxicity dataset used for toxicity classifier evaluation),human erythrocytes,0
